Measurements published in patent publication US8247211B2, “Glycopeptide antibiotics” (American Cyanamid Company, priority 2001, dated 2012).
Converted amounts (≈) assume the structure as drawn.

How the values were obtained:
Experiment in all cases: In vitro antibacterial evaluation: minimum inhibitory concentration (MIC), broth dilution method
Format in all cases: cell-based
Enterococcus sp. = system: Enterococcus sp.
Summary of the method: (§1)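 MIC by broth dilution in Mueller-Hinton II medium following NCCLS M7-A2. Inoculum was 5×10^5 CFU/mL and antibiotic was tested over 64-0.06 μg/mL. Gram-positive panel included clinical isolates resistant to methicillin, penicillin and/or vancomycin.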

Escherichia coli = system: Escherichia coli
Summary of the method: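 First, organisms are seeded at 5×10^5 CFU/mL into Muller-Hinton II […]. Next, antibiotic is applied across 64-0.06 μg/mL by broth dilution (NCCLS M7-A2). Finally, the lowest inhibitory concentration is recorded as MIC.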

Staphylococcus sp. = conditions: 18 hours at 35° C.
Summary of the method: as §1

Streptococcus sp. = system: Streptococcus sp.
Summary of the method: as §1

[1] = broth dilution, inoculum 5×10^5 CFU/mL, 18 hours at 35° C.

Compound: CCCCCCCN1CC(C(O)C2NC(=O)C(C(O)C3CNC(=N)N3)NC(=O)C(Cc3ccc(OC4OC(CO)C(OC5OC6COC7(OC6C(O)C5O)C5CC6CC(C5)CC7C6)C(O)C4O)cc3)NC(=O)C(C(C)c3ccccc3)NC(=O)CNC(=O)C(CO)NC2=O)N(C2OC(CO)C(O)C(O)C2O)C1=N (stereo not drawn) [Example 83, Cyclo[glycyl-β-methylphenylalanyl-O-[4-O-[4,6-O-(2-adamantylidene)hexopyranosyl]hexopyranosyl]tyrosyl-3-(2-iminoimidazolidin-4-yl)seryl-3-[1-heptyl-3-hexopyranosyl-2-iminoimidazolidin-4-yl]serylseryl]]
- MIC Enterococcus faecalis (GC 2242) (Enterococcus sp.; Enterococcus faecalis (GC 2242), broth dilution, 18 hours at 35° C.): 4 µg/mL (≈ 2.62 µM)
- MIC Enterococcus faecalis (GC 2691) (Enterococcus sp.; Enterococcus faecalis (GC 2691), broth dilution, 18 hours at 35° C.): 4 µg/mL (≈ 2.62 µM)
- MIC Enterococcus faecalis (GC 3059) (Enterococcus sp.; Enterococcus faecalis (GC 3059), broth dilution, 18 hours at 35° C.): 4 µg/mL (≈ 2.62 µM)
- MIC Enterococcus faecalis (ATCC 29212) (Enterococcus sp.; strain ATCC 29212): 4 µg/mL (≈ 2.62 µM)
- MIC Enterococcus faecalis (GC 2242) (Enterococcus sp.; strain GC 2242): 4 µg/mL (≈ 2.62 µM)
- MIC Enterococcus faecium (GC 2243) (Enterococcus sp.; strain GC 2243): 2 µg/mL (≈ 1.31 µM)
- MIC Enterococcus faecalis (GC 2691) (Enterococcus sp.; strain GC 2691): 4 µg/mL (≈ 2.62 µM)
- MIC Enterococcus faecalis (GC 3059) (Enterococcus sp.; strain GC 3059): 4 µg/mL (≈ 2.62 µM)
- MIC Enterococcus faecalis (GC 4552) (Enterococcus sp.; strain GC 4552): 4 µg/mL (≈ 2.62 µM)
- MIC Enterococcus faecalis (GC 4553) (Enterococcus sp.; strain GC 4553): 2 µg/mL (≈ 1.31 µM)
- MIC Enterococcus faecalis (GC 4554) (Enterococcus sp.; strain GC 4554): 4 µg/mL (≈ 2.62 µM)
- MIC Enterococcus faecium (GC 4556) (Enterococcus sp.; strain GC 4556): 4 µg/mL (≈ 2.62 µM)
- MIC Enterococcus faecium (GC 4557) (Enterococcus sp.; strain GC 4557): 1 µg/mL (≈ 0.655 µM)
- MIC Enterococcus avium (GC 4558) (Enterococcus sp.; strain GC 4558): 2 µg/mL (≈ 1.31 µM)
- MIC Enterococcus faecalis (GC 6189) (Enterococcus sp.; strain GC 6189): 4 µg/mL (≈ 2.62 µM)
- MIC Escherichia coli (ATCC 25922) (Escherichia coli; strain ATCC 25922): 64 µg/mL (≈ 41.9 µM)
- MIC Escherichia coli (GC 4559) (Escherichia coli; strain GC 4559): 32 µg/mL (≈ 21 µM)
- MIC Escherichia coli (GC 4560) (Escherichia coli; strain GC 4560): 2 µg/mL (≈ 1.31 µM)
- MIC Staphylococcus aureus (ATCC 29213) (Staphylococcus sp.; broth dilution): 2 µg/mL (≈ 1.31 µM)
- MIC Staphylococcus aureus (GC 1131) (Staphylococcus sp.; broth dilution): 4 µg/mL (≈ 2.62 µM)
- MIC Staphylococcus aureus (GC 3051) (Staphylococcus sp.; broth dilution): 4 µg/mL (≈ 2.62 µM)
- MIC Staphylococcus aureus (GC 3053) (Staphylococcus sp.; broth dilution): 4 µg/mL (≈ 2.62 µM)
- MIC Staphylococcus aureus (GC 4541) (Staphylococcus sp.; broth dilution): 2 µg/mL (≈ 1.31 µM)
- MIC Staphylococcus aureus (GC 4542) (Staphylococcus sp.; broth dilution): 4 µg/mL (≈ 2.62 µM)
- MIC Staphylococcus aureus (GC 4544) (Staphylococcus sp.; broth dilution): 4 µg/mL (≈ 2.62 µM)
- MIC Staphylococcus aureus (GC 4545) (Staphylococcus sp.; broth dilution): 2 µg/mL (≈ 1.31 µM)
- MIC Staphylococcus aureus-SMITH (GC 4543) (Staphylococcus sp.; strain SMITH GC 4543, broth dilution): 2 µg/mL (≈ 1.31 µM)
- MIC Streptococcus agalactiae (GC 4564) (Streptococcus sp.; Streptococcus agalactiae (GC 4564), broth dilution, 18 hours at 35° C.): 0.25 µg/mL (≈ 0.164 µM)
- MIC Streptococcus pneumoniae (ATCC 6301) (Streptococcus sp.; Streptococcus pneumoniae (ATCC 6301), broth dilution, 18 hours at 35° C.): 0.5 µg/mL (≈ 0.328 µM)
- MIC Streptococcus pneumoniae (GC 1894) (Streptococcus sp.; Streptococcus pneumoniae (GC 1894), broth dilution, 18 hours at 35° C.): <0.12 µg/mL
- MIC Streptococcus pneumoniae (GC 4565) (Streptococcus sp.; Streptococcus pneumoniae (GC 4565), broth dilution, 18 hours at 35° C.): 0.25 µg/mL (≈ 0.164 µM)
- MIC Streptococcus pyogenes (GC 4563) (Streptococcus sp.; Streptococcus pyogenes (GC 4563), broth dilution, 18 hours at 35° C.): 0.25 µg/mL (≈ 0.164 µM)
- MIC Streptococcus pneumoniae (ATCC 6301) (Streptococcus sp.; strain ATCC 6301): 0.5 µg/mL (≈ 0.328 µM)
- MIC Streptococcus pneumoniae (GC 1894) (Streptococcus sp.; strain GC 1894): <0.12 µg/mL
- MIC Streptococcus pyogenes (GC 4563) (Streptococcus sp.; strain GC 4563): 0.25 µg/mL (≈ 0.164 µM)
- MIC Streptococcus agalactiae (GC 4564) (Streptococcus sp.; strain GC 4564): 0.25 µg/mL (≈ 0.164 µM)
- MIC Streptococcus pneumoniae (GC 4565) (Streptococcus sp.; strain GC 4565): 0.25 µg/mL (≈ 0.164 µM)

Compound: COc1ccc(COCC2OC(OC3C(CO)OC(Oc4ccc(CC5NC(=O)C(C(C)c6ccccc6)NC(=O)CNC(=O)C(CO)NC(=O)C(C(O)C6CNC(=N)N6C6OC(CO)C(O)C(O)C6O)NC(=O)C(C(O)C6CNC(=N)N6)NC5=O)cc4)C(O)C3O)C(O)C(O)C2O)cc1OCc1ccccc1 (centres unmarked) [Example 239]
- MIC Enterococcus avium (GC 4558) (Enterococcus sp.; Enterococcus avium (GC 4558), 18 hours at 35° C.): 4 µg/mL (≈ 2.63 µM)
- MIC Enterococcus faecalis (ATCC 29212) (Enterococcus sp.; Enterococcus faecalis (ATCC 29212), 18 hours at 35° C.): 4 µg/mL (≈ 2.63 µM)
- MIC Enterococcus faecalis (GC 2242) (Enterococcus sp.; Enterococcus faecalis (GC 2242), 18 hours at 35° C.): 4 µg/mL (≈ 2.63 µM)
- MIC Enterococcus faecalis (GC 2691) (Enterococcus sp.; Enterococcus faecalis (GC 2691), 18 hours at 35° C.): 4 µg/mL (≈ 2.63 µM)
- MIC Enterococcus faecalis (GC 3059) (Enterococcus sp.; Enterococcus faecalis (GC 3059), 18 hours at 35° C.): 4 µg/mL (≈ 2.63 µM)
- MIC Enterococcus faecalis (GC 4552) (Enterococcus sp.; Enterococcus faecalis (GC 4552), 18 hours at 35° C.): 4 µg/mL (≈ 2.63 µM)
- MIC Enterococcus faecalis (GC 4553) (Enterococcus sp.; Enterococcus faecalis (GC 4553), 18 hours at 35° C.): 4 µg/mL (≈ 2.63 µM)
- MIC Enterococcus faecalis (GC 4554) (Enterococcus sp.; Enterococcus faecalis (GC 4554), 18 hours at 35° C.): 4 µg/mL (≈ 2.63 µM)
- MIC Enterococcus faecalis (GC 6189) (Enterococcus sp.; Enterococcus faecalis (GC 6189), 18 hours at 35° C.): 4 µg/mL (≈ 2.63 µM)
- MIC Enterococcus faecium (GC 2243) (Enterococcus sp.; Enterococcus faecium (GC 2243), 18 hours at 35° C.): 4 µg/mL (≈ 2.63 µM)
- MIC Enterococcus faecium (GC 4556) (Enterococcus sp.; Enterococcus faecium (GC 4556), 18 hours at 35° C.): 4 µg/mL (≈ 2.63 µM)
- MIC Enterococcus faecium (GC 4557) (Enterococcus sp.; Enterococcus faecium (GC 4557), 18 hours at 35° C.): 2 µg/mL (≈ 1.31 µM)
- MIC Enterococcus faecalis (GC 2242) (Enterococcus sp.; [1]): 4 µg/mL (≈ 2.63 µM)
- MIC Enterococcus faecalis (GC 2691) (Enterococcus sp.; [1]): 4 µg/mL (≈ 2.63 µM)
- MIC Enterococcus faecalis (GC 3059) (Enterococcus sp.; [1]): 4 µg/mL (≈ 2.63 µM)
- MIC Escherichia coli (ATCC 25922) (Escherichia coli; Escherichia coli (ATCC 25922), 18 hours at 35° C.): >64 µg/mL
- MIC Escherichia coli (GC 4559) (Escherichia coli; Escherichia coli (GC 4559), 18 hours at 35° C.): >64 µg/mL
- MIC Escherichia coli (GC 4560) (Escherichia coli; Escherichia coli (GC 4560), 18 hours at 35° C.): 1 µg/mL (≈ 0.657 µM)
- MIC Coagulase Negative Staphylococcus (GC 4547) (Staphylococcus sp.; Coagulase Negative Staphylococcus (GC 4547)): 2 µg/mL (≈ 1.31 µM)
- MIC Coagulase Negative Staphylococcus (GC 4548) (Staphylococcus sp.; Coagulase Negative Staphylococcus (GC 4548)): 1 µg/mL (≈ 0.657 µM)
- MIC Coagulase Negative Staphylococcus (GC 4549) (Staphylococcus sp.; Coagulase Negative Staphylococcus (GC 4549)): 1 µg/mL (≈ 0.657 µM)
- MIC Coagulase Negative Staphylococcus (GC 4551) (Staphylococcus sp.; Coagulase Negative Staphylococcus (GC 4551)): 2 µg/mL (≈ 1.31 µM)
- MIC Coagulase Negative Staphylococcus (GC 6257) (Staphylococcus sp.; Coagulase Negative Staphylococcus (GC 6257)): 1 µg/mL (≈ 0.657 µM)
- MIC Staphylococcus aureus (ATCC 29213) (Staphylococcus sp.; Staphylococcus aureus (ATCC 29213)): 2 µg/mL (≈ 1.31 µM)
- MIC Staphylococcus aureus (GC 1131) (Staphylococcus sp.; Staphylococcus aureus (GC 1131)): 2 µg/mL (≈ 1.31 µM)
- MIC Staphylococcus aureus (GC 3051) (Staphylococcus sp.; Staphylococcus aureus (GC 3051)): 1 µg/mL (≈ 0.657 µM)
- MIC Staphylococcus aureus (GC 3053) (Staphylococcus sp.; Staphylococcus aureus (GC 3053)): 2 µg/mL (≈ 1.31 µM)
- MIC Staphylococcus aureus (GC 4541) (Staphylococcus sp.; Staphylococcus aureus (GC 4541)): 4 µg/mL (≈ 2.63 µM)
- MIC Staphylococcus aureus (GC 4542) (Staphylococcus sp.; Staphylococcus aureus (GC 4542)): 2 µg/mL (≈ 1.31 µM)
- MIC Staphylococcus aureus (GC 4544) (Staphylococcus sp.; Staphylococcus aureus (GC 4544)): 2 µg/mL (≈ 1.31 µM)
- MIC Staphylococcus aureus (GC 4545) (Staphylococcus sp.; Staphylococcus aureus (GC 4545)): 2 µg/mL (≈ 1.31 µM)
- MIC Staphylococcus aureus-SMITH (GC 4543) (Staphylococcus sp.; Staphylococcus aureus-SMITH (GC 4543)): 2 µg/mL (≈ 1.31 µM)
- MIC Staphylococcus haemolyticus (GC 4546) (Staphylococcus sp.; Staphylococcus haemolyticus (GC 4546)): 1 µg/mL (≈ 0.657 µM)
- MIC Streptococcus agalactiae (GC 4564) (Streptococcus sp.; Streptococcus agalactiae (GC 4564), 18 hours at 35° C.): 0.25 µg/mL (≈ 0.164 µM)
- MIC Streptococcus pneumoniae (ATCC 6301) (Streptococcus sp.; Streptococcus pneumoniae (ATCC 6301), 18 hours at 35° C.): <0.06 µg/mL
- MIC Streptococcus pneumoniae (GC 1894) (Streptococcus sp.; Streptococcus pneumoniae (GC 1894), 18 hours at 35° C.): <0.06 µg/mL
- MIC Streptococcus pneumoniae (GC 4565) (Streptococcus sp.; Streptococcus pneumoniae (GC 4565), 18 hours at 35° C.): <0.06 µg/mL
- MIC Streptococcus pyogenes (GC 4563) (Streptococcus sp.; Streptococcus pyogenes (GC 4563), 18 hours at 35° C.): 0.25 µg/mL (≈ 0.164 µM)
- MIC Streptococcus agalactiae (GC 4564) (Streptococcus sp.; [1]): 0.25 µg/mL (≈ 0.164 µM)
- MIC Streptococcus pneumoniae (ATCC 6301) (Streptococcus sp.; [1]): <0.06 µg/mL
- MIC Streptococcus pneumoniae (GC 1894) (Streptococcus sp.; [1]): <0.06 µg/mL
- MIC Streptococcus pneumoniae (GC 4565) (Streptococcus sp.; [1]): <0.06 µg/mL
- MIC Streptococcus pyogenes (GC 4563) (Streptococcus sp.; [1]): 0.25 µg/mL (≈ 0.164 µM)
